According to article PMC6385889 (Chemical biology & drug design, 2011):
Several values for one entry are separate records, joined by “and”; a condition that tells them apart may be missing. Identical values can stand only once. Like-named read-outs stand apart in the source and are kept apart here.

What was measured:
HOS cells = assay: Cellular cytotoxicity; assay type: cell-based, human; details: HOS cells
[1] = test system: HIV-1 containing wild-type (WT) integrase; assay: Antiviral assay, cells infected with HIV-1 vector containing WT integrase; assay type: cell-based
[2] = test system: HIV-1 containing G140S/Q148H integrase; assay type: cell-based; details: cells infected with mutant vector
[3] = test system: HIV-1 containing Y143R integrase; assay type: cell-based; details: cells infected with mutant vector
[4] = test system: HIV-1 containing N155H integrase; assay type: cell-based; details: cells infected with mutant vector
Cellular cytotoxicity = assay type: cell-based, human; details: human, HOS osteosarcoma cells
HIV-1 integrase Y143R = assay: In vitro ST assay, Y143R mutant IN; assay type: biochemical; details: mutant enzyme vs WT enzyme; pre-cleaved DNA, Mg2+
HIV-1 integrase N155H = assay: In vitro ST assay, N155H mutant IN; assay type: biochemical
[5] = test system: HIV-1 integrase G140S/Q148H; details: mutant enzyme vs WT enzyme; pre-cleaved DNA, Mg2+
[6] = Human immunodeficiency virus 1, read-out: EC50 (WT)

Compound	CC50 (HOS cells; 48 hrs)	EC50 ([1]; read-out: EC50 (WT), HIV-1 vector with WT integrase)	Fold-loss of antiviral potency relative to virus containing WT enzyme, G140S/Q148H [2]	Fold-loss of antiviral potency relative to virus containing WT enzyme, G140S/Q148H ([2]; listed as MK-0536)	Fold-loss of antiviral potency relative to virus containing WT enzyme, Y143R [3]	Fold-loss of antiviral potency relative to virus containing WT enzyme, N155H [4]	CC50 at 48 h (Cellular cytotoxicity)	EC50 [1, 6]	Fold-loss of potency relative to WT, Y143R (ST, in vitro) (HIV-1 integrase Y143R)	Fold less sensitive than raltegravir to N155H mutation (in vitro) (HIV-1 integrase N155H; comparison of fold-losses, enzyme assay)	Fold-loss of potency relative to WT, N155H (ST, in vitro) (HIV-1 integrase N155H; mutant enzyme vs WT enzyme, pre-cleaved DNA, Mg2+)	Cytotoxicity fold lower than catechol-containing analogue 3 (HOS cells; ratio of CC50 values)	Fold-loss of potency relative to WT, G140S/Q148H (ST, in vitro) [5]
CC(C)n1c(C(=O)N(C)C)c2c(c(O)c1=O)C(=O)N(Cc1ccc(F)c(Cl)c1)CC2 [compound 2, MK-0536, reference compound]	> 100 µM	0.017 ± 0.004 µM	5x fold	5 fold	0.4x fold	1x fold	–	–	–	–	–	–	–
Cc1nnc(C(=O)NC(C)(C)c2nc(C(=O)NCc3ccc(F)cc3)c(O)c(=O)n2C)o1 [compound 1, raltegravir, reference compound]	–	–	–	–	–	–	> 100 µM	0.004 ± 0.002 µM	–	–	–	–	–
COC(=O)CCc1c2c(c(O)c(=O)n1C(C)C)C(=O)N(Cc1ccc(F)c(Cl)c1)C2=O [5e, Methyl 3-(2-(3-chloro-4-fluorobenzyl)-7-hydroxy-5-isopropyl-1,3,6-trioxo-2,3,5,6-tetrahydro-1H-pyrrolo[3,4-c]pyridin-4-yl)propanoate]	–	–	2 fold and 2x fold	–	2 fold and 2x fold	3 fold and 3x fold	392 ± 66 µM	9.2 ± 1.9 µM	2 fold and 2x fold	approximately 2 fold	4 fold and 4x fold	approximately 70 fold	12 fold and 12x fold
